Measured values published in PMC10545747, “Development of cyclopeptide inhibitors of cGAS targeting protein-DNA interaction and phase separation” (Nature Communications, 2023).
Several values for one entry are separate records, joined by “and”; a condition that tells them apart may be missing. Identical values can stand only once. Square brackets hold non-standard residues; d marks the D form. Peptide text beside a SMILES is read from it.

Target: T1, recombinant human cGAS enzyme (hcGAS-ΔN, residues 147–522) (Homo sapiens, UniProt Q8N884)
T1 construct: N-terminally truncated human cGAS (hcGAS-ΔN, residues 147–522); 6xHis-SUMO (N, cleaved yes); made in house; host or cells: Escherichia coli BL21 (DE3)
T1 sequence (Q8N884 147-522, stated change not applied): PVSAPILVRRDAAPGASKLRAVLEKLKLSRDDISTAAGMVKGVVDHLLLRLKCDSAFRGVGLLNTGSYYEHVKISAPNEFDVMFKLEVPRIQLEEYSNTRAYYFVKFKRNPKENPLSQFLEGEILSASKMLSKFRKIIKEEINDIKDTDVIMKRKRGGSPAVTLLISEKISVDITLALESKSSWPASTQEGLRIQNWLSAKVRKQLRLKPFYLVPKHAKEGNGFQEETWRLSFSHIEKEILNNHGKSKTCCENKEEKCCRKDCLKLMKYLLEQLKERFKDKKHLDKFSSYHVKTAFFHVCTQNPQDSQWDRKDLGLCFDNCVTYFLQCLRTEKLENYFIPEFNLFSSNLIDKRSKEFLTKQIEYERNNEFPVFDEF
Assay: RNA-based fluorescent biosensor assay of cGAS activity (2',3'-cGAMP formation), in vitro screening
Type: biochemical
Settings: for Remaining activity (%), Fig. 1a source data / remaining activity at 20 µM: 20 μM, replicate values; for remaining activity at 20 µM: read-out: Remaining activity (%), Fig. 1a source data; for inhibition at 20 µM / Inhibition %: peptides screened at 20 μM, Supplementary Table 1 / Fig. S5b; for inhibition at 20 µM: read-out: Inhibition %
Text: To screen direct cGAS inhibitors targeting protein-DNA interface from our developed focused library of macrocyclic peptides, we applied an RNA-based fluorescent biosensor for 2’,3’-cGAMP to detect cGAS activity in vitro (Supplementary Fig. 1a)[49]. The formation of 2’,3’-cGAMP from ATP and GTP was catalyzed by recombinant human cGAS enzyme (hcGAS-ΔN, residues 147–522, Supplementary Fig. 1b) in the presence of ISD (interferon stimulatory DNA, a 45-bp dsDNA), which was readily quantified by the RNA-based fluorescent biosensor and was further confirmed by ion exchange chromatography (Supplementary Fig. 1c). […] Subsequently, a total of 90 macrocyclic peptides were screened at a concentration of 20 μM (Fig. 1a and Supplementary Fig. 1e), and 4 hits (XQ2, XQ8, XQ19, and XQ46) were obtained for further testing at a cut-off of 40% inhibition (Supplementary Table 1). To evaluate the inhibitory effect of the hits against cGAS in cells, we employed real-time quantitative PCR (qPCR) to examine mRNA levels of IFNΒ1 in THP1 cells. The reported cGAS inhibitor RU.521 was used as the positive control, and the non-active peptide XQ28 in the screening assay was used as the negative control. […] The inhibition of cGAS by these hits was further confirmed in the reporter cell line THP1-Lucia ISG (Invivogen) that expresses secreted luciferase induced by an IRF3-inducible ISG54 promoter (Fig. 1c). The discrepancy between the inhibitory effect of the hits in protein and cellular assays may be attributed to their different cellular permeability.
The high-throughput screening (HTS) experiments of cGAS activity are based on the method previously described. To initiate the enzyme reaction, ISD was added to the reaction solution (40 mM Tris-HCl, pH 7.5, 100 mM NaCl, 10 mM MgCl2) containing hcGAS-ΔN, ATP (Sangon Biotech, Cat# A600311) and GTP (Sangon Biotech, Cat# A620332) in a total volume of 20 ul with the final concentration of 0.5 μM, 1.5 μM, 1 mM, 1 mM, respectively, and incubated for 2 h at 37 °C. For HTS experiments, compounds were added to the same reaction conditions as described above with the final concentration of 20 μM. Z’ factors were calculated from three replicates in the 384-well plate.

| Remaining activity (%), Fig. 1a source data | remaining activity at 20 µM [%] | inhibition at 20 µM [%] | Inhibition % [%] | Compound |
| --- | --- | --- | --- | --- |
| 67.2186% and 66.8539% | 67.1 | 33 |  | CC(C)C[C@@H]1NC(=O)[C@H](CCCNC(=N)N)NC(=O)[C@H](C(C)C)NC(=O)[C@@H]2CCCN2C(=O)[C@@H](Cc2ccccc2)NC(=O)[C@H](CC(C)C)NC(=O)[C@H](CCCNC(=N)N)NC(=O)[C@H](C)NC(=O)[C@@H]2CCCN2C(=O)[C@@H](Cc2ccccc2)NC1=O [XQ3, Cyclo (LfPARLfPVR)] (cyclo(ARL[dF]PVRL[dF]P)) |
|  |  |  | 0 | Cyclo (AaRVDLfPVR) [XQ87] |
|  |  | 0 |  | CC(C)C[C@@H]1NC(=O)[C@H](CC(=O)O)NC(=O)[C@H]([C@@H](C)O)NC(=O)[C@@H]2CCCN2C(=O)[C@@H](Cc2ccccc2)NC(=O)[C@H](CC(C)C)NC(=O)[C@H](CCCNC(=N)N)NC(=O)[C@H]([C@@H](C)O)NC(=O)[C@H](C)NC(=O)[C@@H](Cc2ccccc2)NC1=O [XQ59, Cyclo (LfPTDLfATR)] (cyclo(ATRL[dF]PTDL[dF])) |
| 88.8732% and 88.6928% | 89.1 | 11 |  | CC(C)[C@@H]1NC(=O)[C@H](C)NC(=O)[C@@H](Cc2ccccc2)NC(=O)[C@H](C)NC(=O)[C@H](CCCNC(=N)N)NC(=O)[C@H](C(C)C)NC(=O)[C@@H]2CCCN2C(=O)[C@@H](Cc2ccccc2)NC(=O)[C@H](C)NC(=O)[C@H](CCCNC(=N)N)NC1=O [XQ20, Cyclo (AfAVRAfPVR)] (cyclo(AVRA[dF]PVRA[dF])) |
| 77.1619% and 77.2258% | 76.3 | 23 |  | CC(C)C[C@@H]1NC(=O)[C@H](C)NC(=O)[C@H](CCCNC(=N)N)NC(=O)[C@@H]2CCCN2C(=O)[C@@H](Cc2ccccc2)NC(=O)[C@H](CC(C)C)NC(=O)[C@H](CCCNC(=N)N)NC(=O)[C@H](C(C)C)NC(=O)[C@@H]2CCCN2C(=O)[C@@H](Cc2ccccc2)NC1=O [XQ43, Cyclo (LfPRALfPVR)] (cyclo(AL[dF]PVRL[dF]PR)) |
| 106.53% and 106.617% | 106 | 0 |  | CC(C)C[C@@H]1NC(=O)[C@H](CCCNC(=N)N)NC(=O)[C@H]([C@@H](C)O)NC(=O)[C@@H]2CCCN2C(=O)[C@@H](Cc2ccccc2)NC(=O)[C@H](CC(C)C)NC(=O)[C@H](CCCNC(=N)N)NC(=O)[C@H]([C@@H](C)O)NC(=O)[C@H](C)NC(=O)[C@@H](Cc2ccccc2)NC1=O [XQ35, Cyclo (LfATRLfPTR)] (cyclo(ATRL[dF]PTRL[dF])) |
|  |  | 0 |  | CC(C)C[C@@H]1NC(=O)[C@H](CCCNC(=N)N)NC(=O)[C@H](CC(C)C)NC(=O)[C@@H]2CCCN2C(=O)[C@@H](Cc2ccccc2)NC(=O)[C@H](C)NC(=O)[C@H](CCCNC(=N)N)NC(=O)[C@H](C(C)C)NC(=O)[C@@H]2CCCN2C(=O)[C@@H](Cc2ccccc2)NC1=O [XQ47, Cyclo (AfPLRLfPVR)] (cyclo(A[dF]PLRL[dF]PVR)) |
| 84.7804% and 84.3938% | 84.5 | 16 |  | CC(C)C[C@@H]1NC(=O)[C@H](C)NC(=O)[C@H](C(C)C)NC(=O)[C@@H]2CCCN2C(=O)[C@@H](Cc2ccccc2)NC(=O)[C@H](CC(C)C)NC(=O)[C@H](CCCNC(=N)N)NC(=O)[C@H](C(C)C)NC(=O)[C@@H]2CCCN2C(=O)[C@@H](Cc2ccccc2)NC1=O [XQ4, Cyclo (LfPVALfPVR)] (cyclo(AL[dF]PVRL[dF]PV)) |
| 103.183% and 102.415% | 103 | 0 |  | CC(C)C[C@H]1NC(=O)[C@H](Cc2ccccc2)NC(=O)[C@H]2CCCN2C(=O)[C@@H]([C@H](C)O)NC(=O)[C@@H](CCCNC(=N)N)NC(=O)[C@@H](CC(C)C)NC(=O)[C@H](Cc2ccccc2)NC(=O)[C@H]2CCCN2C(=O)[C@@H](C(C)C)NC(=O)[C@@H](CCCNC(=N)N)NC1=O [XQ23, Cyclo (tpFlrvpFlr)] (cyclo(F[dL][dR][dT][dP]F[dL][dR][dV][dP])) |
| 103.793% and 104.243% | 103 | 0 |  | CC(C)[C@@H]1NC(=O)[C@@H]2CCCN2C(=O)[C@@H](Cc2ccccc2)NC(=O)[C@H](C)NC(=O)[C@H](CCCNC(=N)N)NC(=O)[C@H](C(C)C)NC(=O)[C@@H]2CCCN2C(=O)[C@@H](Cc2ccccc2)NC(=O)[C@H](C)NC(=O)[C@H](CCCNC(=N)N)NC1=O [XQ10, Cyclo (AfPVRAfPVR)] (cyclo(A[dF]PVRA[dF]PVR)) |
| 99.3962% and 98.6078% | 102 | 0 |  | CC(C)[C@@H]1NC(=O)[C@@H]2CCCN2C(=O)[C@@H](C)NC(=O)[C@H](C)NC(=O)[C@H](CCCNC(=N)N)NC(=O)[C@H](C(C)C)NC(=O)[C@@H]2CCCN2C(=O)[C@@H](Cc2ccccc2)NC(=O)[C@H](C)NC(=O)[C@H](CCCNC(=N)N)NC1=O [XQ22, Cyclo (AaPVRAfPVR)] (cyclo(A[dA]PVRA[dF]PVR)) |
|  |  |  | 0 | Cyclo (Lf(Hyp)TDAfPTR) [XQ86] |
| 70.1575% and 70.5622% | 69.4 | 30 |  | CC(C)C[C@@H]1NC(=O)[C@H](CCCNC(=N)N)NC(=O)[C@H]([C@@H](C)O)NC(=O)[C@@H]2CCCN2C(=O)[C@@H](C(C)C)NC(=O)[C@H](CC(C)C)NC(=O)[C@H](CCCNC(=N)N)NC(=O)[C@H]([C@@H](C)O)NC(=O)[C@@H]2CCCN2C(=O)[C@@H](Cc2ccccc2)NC1=O [XQ31, Cyclo (LvPTRLfPTR)] (cyclo(L[dF]PTRL[dV]PTR)) |
| 87.273% and 87.6684% | 86 | 13 |  | CC(C)C[C@@H]1NC(=O)[C@H](CCCNC(=N)N)NC(=O)[C@H]([C@@H](C)O)NC(=O)[C@@H]2CCCN2C(=O)[C@@H](Cc2ccccc2)NC(=O)[C@H](CC(C)C)NC(=O)[C@H](CCCNC(=N)N)NC(=O)[C@H](C(C)C)NC(=O)[C@@H]2CCCN2C(=O)[C@@H](Cc2ccccc2)NC1=O [XQ42, Cyclo (LfPTRLfPVR)] (cyclo(L[dF]PTRL[dF]PVR)) |
| 115.337% and 116.119% | 117 | 0 |  | CC(C)C[C@@H]1NC(=O)[C@H](CCCNC(=N)N)NC(=O)[C@H]([C@@H](C)O)NC(=O)[C@@H]2CCCN2C(=O)[C@@H](C)NC(=O)[C@H](CC(C)C)NC(=O)[C@H](CCCNC(=N)N)NC(=O)[C@H]([C@@H](C)O)NC(=O)[C@@H]2CCCN2C(=O)[C@@H](C)NC1=O [XQ40, Cyclo (LaPTRLaPTR)] (cyclo(L[dA]PTRL[dA]PTR)) |
|  |  | 0 |  | CC(C)C[C@@H]1NC(=O)[C@H](CCCNC(=N)N)NC(=O)[C@H](C(C)C)NC(=O)[C@H](CC(C)C)NC(=O)[C@@H](Cc2ccccc2)NC(=O)[C@H](C)NC(=O)[C@H](CCCNC(=N)N)NC(=O)[C@H](C(C)C)NC(=O)[C@@H]2CCCN2C(=O)[C@@H](Cc2ccccc2)NC1=O [XQ48, Cyclo (AfLVRLfPVR)] (cyclo(A[dF]LVRL[dF]PVR)) |
|  |  | 0 |  | CC(C)C[C@@H]1NC(=O)[C@H](CCCNC(=N)N)NC(=O)[C@H]([C@@H](C)O)NC(=O)[C@@H]2CCCN2C(=O)[C@@H](Cc2ccccc2)NC(=O)[C@H](C)NC(=O)[C@H](CC(=O)O)NC(=O)[C@H](C)NC(=O)[C@@H]2CCCN2C(=O)[C@@H](Cc2ccccc2)NC1=O [XQ79, Cyclo (LfPADAfPTR)] (cyclo(ADA[dF]PTRL[dF]P)) |
|  |  |  | 0 | Cyclo (LfPTDLf(Orn(Dde))VR) [XQ70] |
| 110.709% and 110.469% | 110 | 0 |  | CC(C)C[C@@H]1NC(=O)[C@H](CCCNC(=N)N)NC(=O)[C@H](C(C)C)NC(=O)[C@@H]2CCCN2C(=O)[C@@H](Cc2ccccc2)NC(=O)[C@H](C)NC(=O)[C@H](CCCNC(=N)N)NC(=O)[C@H](C)NC(=O)[C@@H]2CCCN2C(=O)[C@@H](Cc2ccccc2)NC1=O [XQ15, Cyclo (AfPVRLfPAR)] (cyclo(ARA[dF]PVRL[dF]P)) |
|  |  | 0 |  | CC(C)C[C@@H]1NC(=O)[C@H](C)NC(=O)[C@H](C(C)C)NC(=O)[C@@H]2CCCN2C(=O)[C@@H](Cc2ccccc2)NC(=O)[C@H](CC(C)C)NC(=O)[C@H](CCCNC(=N)N)NC(=O)[C@H](C(C)C)NC(=O)[C@@H]2CCCN2C(=O)[C@@H](CCCNC(=N)N)NC1=O [XQ56, Cyclo (LrPVRLfPVA)] (cyclo(AL[dR]PVRL[dF]PV)) |
